Values of other authors in patent publication US6953823B2, “Elastomeric insulating composition for a solid propellant rocket motor” (Chung Shan Institute of Science and Technology, priority 2003, dated 2005).

Tested on: rats

SMILES: [OH-].[OH-].[OH-].[OH-].[OH-].[OH-].[Sn+4].[Zn+2] [Zinc Hydroxystannate, zinc hydroxystannate]
- Oral Toxicity (LD50, rats): >5 gr/kg
